Each structure is given as a SMILES string. Where two headings read alike, the source gives them in different places.

What all share (format): in vivo
One test relates to Leptosphaeria nodorum. The test can be described thus: Wheat glume blotch (LEPTNO) fungicidal activity. The conditions noted are these: Parastagonospora nodorum, 24 h, 1 Day Protectant, read-out: Disease Control LEPTNO 1DP. The protocol: Technical grades of materials were dissolved in acetone, which were then mixed with nine volumes of water containing 110 ppm Triton X-100. The fungicide solutions were applied onto wheat seedlings using an automated booth sprayer to run-off. All sprayed plants were allowed to air dry prior to further handling. Wheat plants (variety Yuma) were grown from seed in a greenhouse in 50% mineral soil/50% soil-less Metro mix until the first leaf was fully emerged, with 7-10 seedlings per pot. These plants were inoculated with an aqueous spore suspension of Septoria tritici either prior to or after fungicide treatments. After inoculation the plants were kept in 100% relative humidity (one day in a dark dew chamber followed by two to three days in a lighted dew chamber at 20° C.) to permit spores to germinate and infect the leaf. The plants were then transferred to a greenhouse set at 20° C. for disease to develop. When disease symptoms were fully expressed on the 1st leaves of untreated plants, infection levels were assessed on a scale of 0 to 100 percent disease severity. Percent disease control was calculated using the ratio of disease severity on treated plants relative to untreated plants. Evaluation of Fungicidal Activity: Wheat Glume Blotch (Leptosphaeria Nodorum; Bayer Code […]) Wheat plants (variety Yuma) were grown from seed in a greenhouse in 50% mineral soil/50% soil-less Metro mix until the first leaf was fully emerged, with 7-10 seedlings per pot. These plants were inoculated with an aqueous spore suspension of Leptosphaeria nodorum 24 hr after fungicide treatments. After inoculation the plants were kept in 100% relative humidity (one day in a dark dew chamber followed by two days in a lighted dew chamber at 20° C.) to permit spores to germinate and infect the leaf. The plants were then transferred to a greenhouse set at 20° C. for disease to develop. Fungicide formulation, application and disease assessment followed the procedures as described in the Example A.

Test [1] has as its system Magnaporthe grisea; Anamorph: Pyricularia oryzae. The test can be described thus: whole plant or invertebrate. The conditions noted are these: 24 h, read-out: Disease Control PYRIOR 1DP.
The next test deals with Uncinula necator. The test is described as follows: Grape powdery mildew (UNCINE) fungicidal activity. The conditions noted are these: Erysiphe necator, 24 h, 1 Day Protectant, read-out: Disease Control UNCINE 1DP. The protocol: Technical grades of materials were dissolved in acetone, which were then mixed with nine volumes of water containing 110 ppm Triton X-100. The fungicide solutions were applied onto wheat seedlings using an automated booth sprayer to run-off. All sprayed plants were allowed to air dry prior to further handling. Wheat plants (variety Yuma) were grown from seed in a greenhouse in 50% mineral soil/50% soil-less Metro mix until the first leaf was fully emerged, with 7-10 seedlings per pot. These plants were inoculated with an aqueous spore suspension of Septoria tritici either prior to or after fungicide treatments. After inoculation the plants were kept in 100% relative humidity (one day in a dark dew chamber followed by two to three days in a lighted dew chamber at 20° C.) to permit spores to germinate and infect the leaf. The plants were then transferred to a greenhouse set at 20° C. for disease to develop. When disease symptoms were fully expressed on the 1st leaves of untreated plants, infection levels were assessed on a scale of 0 to 100 percent disease severity. Percent disease control was calculated using the ratio of disease severity on treated plants relative to untreated plants. Evaluation of Fungicidal Activity: Grape Powdery Mildew (Uncinula Necator; Bayer Code […]) Grape seedlings (variety Carignane) were grown in soil-less Metro mix, with one plant per pot, and used in the test when approximately one month old. Plants were inoculated 24 hr after fungicide treatment by shaking spores from infected leaves over test plants. Plants were maintained in a greenhouse set at 20° C. until disease was fully developed. Fungicide formulation, application and disease assessment on the sprayed leaves followed the procedures as described in the Example A.

The subject of the next test is Cercospora beticola. The test is described as follows: Leaf spot of sugar beets (CERCBE) fungicidal activity. The conditions noted are these: 24 h, 1 Day Protectant, sugar beet, read-out: Disease Control CERCBE 1DP. The protocol:
Technical grades of materials were dissolved in acetone, which were then mixed with nine volumes of water containing 110 ppm Triton X-100. The fungicide solutions were applied onto wheat seedlings using an automated booth sprayer to run-off. All sprayed plants were allowed to air dry prior to further handling. Wheat plants (variety Yuma) were grown from seed in a greenhouse in 50% mineral soil/50% soil-less Metro mix until the first leaf was fully emerged, with 7-10 seedlings per pot. These plants were inoculated with an aqueous spore suspension of Septoria tritici either prior to or after fungicide treatments. After inoculation the plants were kept in 100% relative humidity (one day in a dark dew chamber followed by two to three days in a lighted dew chamber at 20° C.) to permit spores to germinate and infect the leaf. The plants were then transferred to a greenhouse set at 20° C. for disease to develop. When disease symptoms were fully expressed on the 1st leaves of untreated plants, infection levels were assessed on a scale of 0 to 100 percent disease severity. Percent disease control was calculated using the ratio of disease severity on treated plants relative to untreated plants. Evaluation of Fungicidal Activity: Leaf Spot of Sugar Beets (Cercospora Beticola; Bayer Code CERCBE) Sugar beet plants (variety HH88) were grown in soil-less Metro mix and trimmed regularly to maintain an uniform plant size prior to test. Plants were inoculated with a spore suspension 24 hr after fungicide treatments. Inoculated plants were kept in a dew chamber at 22° C. for 48 hr then incubated in a greenhouse set at 24° C. under a clear plastic hood with bottom ventilation until disease symptoms were fully expressed. Fungicide formulation, application and disease assessment on the sprayed leaves followed the procedures as described in the Example A.

In a further test the test system is Puccinia triticina. The test can be described thus: Wheat brown rust (PUCCRT) fungicidal activity on wheat seedlings. The essentials: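 Compounds in acetone diluted with nine volumes water containing 110 ppm Triton X-100, sprayed to run-off on first-leaf Yuma wheat seedlings inoculated with P. triticina spores before or after treatment. Dark dew room 22° C, 100% RH overnight, then greenhouse 24° C; percent disease control from severity (0-100%) relative to untreated plants.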

The mark [2] stands for this setting: 24 h, 1 Day Protectant, read-out: Disease Control PUCCRT 1 DP.
[3] abbreviates: 72 h, 3 Day Curative, read-out: Disease Control PUCCRT 3 DC.

As for `COCCCO[C@@H]1[C@@H](Cc2ccccc2)COC[C@H](NC(=O)c2nccc(OC)c2OCOC(C)=O)C(=O)O[C@H]1C` [Compound 16], the pest or weed control at 100 ppm with Leptosphaeria nodorum was in the range of 80 to 100%; in test [1] it was 80 to 100%; in the test with Uncinula necator it was 0 to 80%; in the test on Cercospora beticola, 80 to 100%; in the test on Puccinia triticina (setting [2]) it was 80 to 100%; in the test with Puccinia triticina (setting [3]), 80 to 100%.
`CCCO[C@@H]1[C@@H](Cc2ccccc2)COC[C@H](NC(=O)c2nccc(OC)c2OCOC(C)=O)C(=O)O[C@H]1C` [Compound 22]: the pest or weed control at 100 ppm (in the test with Leptosphaeria nodorum; in test [1]; in the test with Uncinula necator; in the test with Cercospora beticola; with Puccinia triticina (setting [2]); in the test with Puccinia triticina (setting [3])) was 80 to 100% each time.
Turning to `COc1ccnc(C(=O)N[C@H]2COC[C@H](Cc3ccccc3)[C@@H](OCCCC(F)(F)F)[C@H](C)OC2=O)c1OCOC(C)=O` [Compound 23], the pest or weed control at 100 ppm in the test on Leptosphaeria nodorum fell in the range of 80 to 100%; in test [1] it was 80 to 100%; in the test on Uncinula necator, 0 to 80%; in the test with Cercospora beticola, 80 to 100%; in the test with Puccinia triticina (setting [2]) it was 80 to 100%; in the test with Puccinia triticina (setting [3]), 80 to 100%.
For the compound `CCCCCO[C@@H]1[C@@H](Cc2ccccc2)COC[C@H](NC(=O)c2nccc(OC)c2OCOC(C)=O)C(=O)O[C@H]1C` [Compound 26], the pest or weed control at 100 ppm (in the test on Leptosphaeria nodorum; in test [1]; with Uncinula necator; in the test on Cercospora beticola; in the test on Puccinia triticina (setting [2]); in the test with Puccinia triticina (setting [3])) was 80 to 100% in each case.
Turning to `COc1ccnc(C(=O)N[C@H]2COC[C@H](Cc3ccccc3)[C@@H](OCCCc3ccccc3)[C@H](C)OC2=O)c1OCOC(C)=O` [Compound 34], the pest or weed control at 100 ppm in the test on Leptosphaeria nodorum was 80 to 100%; in test [1], 80 to 100%; with Uncinula necator it was 0 to 80%; in the test on Cercospora beticola, 80 to 100%; in the test on Puccinia triticina (setting [2]), 80 to 100%; in the test on Puccinia triticina (setting [3]) it was 80 to 100%.
For `COC(=O)/C=C/O[C@@H]1[C@@H](Cc2ccccc2)COC[C@H](NC(=O)c2nccc(OC)c2OCOC(C)=O)C(=O)O[C@H]1C` [Compound 36], the pest or weed control at 100 ppm with Leptosphaeria nodorum lay in the range of 80 to 100%; in test [1], 80 to 100%; with Uncinula necator it was 0 to 80%; in the test on Cercospora beticola, 0 to 80%; with Puccinia triticina (setting [2]) it was 80 to 100%; in the test with Puccinia triticina (setting [3]), 80 to 100%.
As for `COc1ccnc(C(=O)N[C@H]2COC[C@H](Cc3ccccc3)[C@@H](OC(=O)c3ccccc3)[C@H](C)OC2=O)c1OCOC(C)=O` [Compound 37], the pest or weed control at 100 ppm is 80 to 100% with Leptosphaeria nodorum; 80 to 100% in test [1]; 0 to 80% with Uncinula necator; 80 to 100% in the test on Cercospora beticola; 80 to 100% in the test on Puccinia triticina (setting [2]); 80 to 100% in the test with Puccinia triticina (setting [3]).
For the compound `COc1ccnc(C(=O)N[C@H]2COC[C@H](Cc3ccccc3)[C@@H](OC(=O)C3CC3)[C@H](C)OC2=O)c1OCOC(C)=O` [Compound 38], the pest or weed control at 100 ppm with Leptosphaeria nodorum lay in the range of 80 to 100%; in test [1], 80 to 100%; in the test with Uncinula necator, 0 to 80%; with Cercospora beticola it was 80 to 100%; in the test on Puccinia triticina (setting [2]), 80 to 100%; in the test on Puccinia triticina (setting [3]) it was 80 to 100%.
Turning to `COc1ccnc(C(=O)N[C@H]2COC[C@H](Cc3ccccc3)[C@@H](OC)[C@H](C)OC2=O)c1OCOC(C)=O` [Compound 39], the pest or weed control at 100 ppm in the test on Leptosphaeria nodorum was in the range of 80 to 100%; in test [1], 80 to 100%; in the test with Uncinula necator, 0 to 80%; with Cercospora beticola it was 0 to 80%; in the test with Puccinia triticina (setting [2]) it was 80 to 100%; with Puccinia triticina (setting [3]), 80 to 100%.
Regarding `COc1ccnc(C(=O)N[C@H]2COC[C@H](Cc3ccccc3)[C@@H](Oc3ccccc3)[C@H](C)OC2=O)c1OCOC(C)=O` [Compound 40], the pest or weed control at 100 ppm in the test on Leptosphaeria nodorum was in the range of 80 to 100%; in test [1], 80 to 100%; in the test with Uncinula necator, 0 to 80%; in the test with Cercospora beticola, 80 to 100%; in the test on Puccinia triticina (setting [2]) it was 80 to 100%; in the test on Puccinia triticina (setting [3]), 80 to 100%.
As to `COc1ccnc(C(=O)N[C@H]2COC[C@H](Cc3ccccc3)[C@@H](OCC(F)F)[C@H](C)OC2=O)c1OCOC(C)=O` [Compound 44], the pest or weed control at 100 ppm in the test with Leptosphaeria nodorum lay in the range of 80 to 100%; in test [1], 80 to 100%; with Uncinula necator it was 0 to 80%; with Cercospora beticola, 0 to 80%; with Puccinia triticina (setting [2]), 80 to 100%; in the test with Puccinia triticina (setting [3]) it was 80 to 100%.
`COc1ccnc(C(=O)N[C@H]2COC[C@H](Cc3ccccc3)[C@@H](OCCC(C)OC)[C@H](C)OC2=O)c1OCOC(C)=O` (stereo partly drawn) [Compound 46]: the pest or weed control at 100 ppm lay in the range of 80 to 100% in the test on Leptosphaeria nodorum; 80 to 100% in test [1]; 0 to 80% with Uncinula necator; 80 to 100% in the test with Cercospora beticola; 80 to 100% in the test on Puccinia triticina (setting [2]); 80 to 100% in the test with Puccinia triticina (setting [3]).
Consider `COc1ccnc(C(=O)N[C@H]2COC[C@H](Cc3ccccc3)[C@@H](OC3CCCC3)[C@H](C)OC2=O)c1OC(C)=O` [Compound 107], for which the pest or weed control at 100 ppm in the test with Leptosphaeria nodorum was in the range of 80 to 100%; in test [1] it was 80 to 100%; with Uncinula necator, 0 to 80%; in the test on Cercospora beticola, 80 to 100%; in the test with Puccinia triticina (setting [2]), 80 to 100%; with Puccinia triticina (setting [3]), 80 to 100%.
With `COc1ccnc(C(=O)N[C@H]2COC[C@H](Cc3ccccc3)[C@@H](OC3CCCC3)[C@H](C)OC2=O)c1OCOC(=O)C(C)C` [Compound 108], the pest or weed control at 100 ppm (with Leptosphaeria nodorum; in test [1]; with Uncinula necator; in the test on Cercospora beticola; with Puccinia triticina (setting [2]); in the test on Puccinia triticina (setting [3])) was 80 to 100% throughout.

The record behind these values is patent publication US8835462B2, “Macrocyclic picolinamides as fungicides” (Dow AgroSciences LLC, priority 2012, dated 2014).
